Measured values taken from article PMC7278776, “Multidrug Resistance Modulation Activity of Silybin Derivatives and Their Anti-Inflammatory Potential” (Antioxidants, 2020).
Where two headings read alike, the source gives them in different places. Marks after values point to notes of the source that are not given here.

Columns and labels:
HepG2 cells = assay: CAA (cellular antioxidant activity) assay; type: cell-based; details: Homo sapiens
Procedure: For the CAA assay, human hepatocellular carcinoma HepG2 cells (ATCC, Manassas, VA, USA) were seeded into a 96-well microplate at a density of 1 × 10^5 cells/well in EMEM medium supplemented with 10% of FBS, 2 mM L-glutamine and 1 × antibiotic antimycotic solution. The cells were maintained in a CO2 incubator (5% CO2, 37 °C, Memmert GmbH & Co, Büchenbach, Germany). The following day, the plates were washed with PBS and new fresh DMEM was added into each well supplemented with tested samples in the concentration range of 6.25–100 µM and fluorescent probe DCFH-DA (12.5 mg/L). After 1 h of incubation at 37 °C, the medium was replaced with AAPH solution (0.16 mg/mL in PBS), except for the negative control, where PBS was added instead. Directly, the fluorescence was recorded for 2 h in 5 min steps at 485/540 nm excitation/emission (ex./em.).

TNF-α = TNF-α release by LPS-induced macrophages (ELISA); type: cell-based, mouse; details: for IC50: Mus musculus
Procedure: To determine the level of inflammatory cytokine TNF-α, macrophages were pre-cultivated with the tested compounds (12.5–50 µM) for 24 h. Thereafter, the plates were washed with PBS and new MEM medium enriched with LPS (1 µg/mL) was added to the wells. After 2 h of incubation, the plates were centrifuged (1000× g; 10 min, 4 °C) and then the medium was removed and frozen to −80 °C. Prior to the detection, the samples were diluted in ELISA diluent in a 1:10 ratio. […]

A2780/DOX = assay: Viability of A2780/DOX cells (resazurin); details: Homo sapiens, A2780, read-out: IC50 (µM), concentration necessary to halve cell viability
Procedure: To determine the NO production, the medium was mixed with Griess reagent (0.04 g/mL, prepared in deionized water) in a 1:1 ratio. After 15 min, absorbance was recorded at 540 nm. To determine cell viability, the resazurin solution (0.03 mg/mL in PBS) was added to the cells. After 2 h of incubation, fluorescence was recorded (560/590 nm, ex./em.).
A multidrug resistant ovarian sub-line resistant to doxorubicin (A2780/DOX, Sigma-Aldrich) was cultivated in DMEM medium with 10% FBS and 1 × antibiotic antimycotic solution. Every other passage, doxorubicin at the final concentration of 0.1 µM was added to the culture medium to maintain the resistance of the cell line. To perform experiments, the cells were seeded at 1 × 10^5 cell/mL into the wells of a 96-well plate and incubated for 24 h. Afterwards, the cells were washed with PBS and fresh DMEM medium with tested compounds at 10, 20 and 30 µM were added to each well, except for the control wells. Subsequently, the cells were exposed to increasing concentrations of doxorubicin (0.6–20 µM) for 72 h. After incubation, the resazurin assay was performed as described above. The IC50 of doxorubicin was calculated for both the control and the samples and the fold change was counted up. […] The fold change lower than 1 means an antagonistic effect. (1) FOLD CHANGE=IC50 value of DOX cells treated with chemotherapeutic /IC50 value of DOX cells treated with chemotherapeutic and compound

ABCA1 = ABCA1 mRNA expression (real-time PCR); type: cell-based, human; details: A2780/DOX
Procedure: (§1) The A2780/DOX cell line was seeded into 5 cm Petri dishes with DMEM medium at 1 × 10^5 cell/mL. After 24 h, the dishes were washed with PBS and new DMEM medium supplemented with doxorubicin (at concentration equal to IC25) and samples (10 µM) were added. After 48 h of treatment, the cells were washed with PBS and harvested using the standard trypsin-EDTA procedure. The harvested cells were centrifuged (3200× g; 10 min, 4 °C). The supernatant was discarded, and the pellets were washed with 1.5 mL of cooled PBS (5400× g; 10 min, 4 °C). The washing step was repeated with 1 mL of PBS and the cells were centrifuged again (10,000× g; 3 min, 4 °C). Afterwards, the pellets were resuspended in 1 mL of Trizol (Invitrogen, Carlsbad, CA, USA) and transferred into pre-cooled RNase-free microfuge tubes. The samples were stored at −80 °C.
(§2) A Quant-iT RiboGreen RNA Assay Kit (Invitrogen) was used to determine the RNA concentration using the Infinite M200 plate reader (Tecan, Männedor, Switzerland). The cDNA was prepared from 0.5 µg of total RNA using a RevertAid First Strand Synthesis cDNA Kit (MBI Fermentas, Vilnius, Lithuania). The amplification of the ubiquitin C gene fragment was used to determine the quality of cDNA.
(§3) The experiment was performed using the ViiA7 Real-Time polymerase chain reaction (PCR) System (Life Technologies, Camarillo, CA, USA) with a 384-well block. Before quantitative real-time PCR, the master mix was prepared by mixing 2 µL of 8 × diluted cDNA, 1.75 µL of RNase free water, 1 µL of 5 × HotFIREPol Probe quantitative PCR Mix Plus (Solis Biodyne, Tartu, Estonia) and 0.25 µL of specific 20 × TaqMan Gene Expression Assay (Life Technologies), giving 5 µL of final reaction volume. Cycling parameters were: initial hold at 50 °C for 2 min and denaturation at 95 °C for 10 min, followed by 45 cycles consisting of denaturation at 95 °C for 15 s and annealing/extension at 60 °C for 1 min. After each extension phase, the fluorescence values were acquired. Duplicate samples were used for measurement and samples with a standard deviation of duplicates > 1.0 cycle threshold (Ct) were re-analyzed. The real time PCR procedure was maintained according to MIQE (Minimum information for publication of quantitative real-time PCR experiments) guidelines. The software REST 2009 (Qiagen, Hilden, Germany) served to compare relative transcript levels of genes in the cell line.

ABCA3 = ABCA3 mRNA expression (real-time PCR); type: cell-based, human; details: A2780/DOX
Procedure: as §1, §2, §3

ABCF1 = ABCF1 mRNA expression (real-time PCR); type: cell-based, human; details: A2780/DOX
Procedure: as §1, §2, §3

ABCB2 = ABCB2 mRNA expression (real-time PCR); type: cell-based, human; details: A2780/DOX, 10 µM, 48 h, without doxorubicin
ABCB9 = ABCB9 mRNA expression (real-time PCR); type: cell-based, human; details: A2780/DOX, 10 µM, 48 h, without doxorubicin
ABCC5 = ABCC5 mRNA expression (real-time PCR); type: cell-based, human; details: A2780/DOX, 10 µM, 48 h, without doxorubicin
ABCA2 = ABCA2 mRNA expression (real-time PCR); type: cell-based, human; details: 10 µM, 48 h, without doxorubicin; for ABCA2 Expression Difference / ABCA2 Treated vs. Untreated: A2780/DOX
[1] = HepG2, read-out: CAA, concentration necessary to halve the fluorescence response (IC50)
[2] = RAW264.7, read-out: TNF-α, concentration necessary to halve the release (IC50)
[3] = compound 12.5 µM, untreated LPS control 2954 ± 92
[4] = compound 25 µM, untreated LPS control 2954 ± 92
[5] = compound 50 µM, untreated LPS control 2954 ± 92
[6] = 10 µM combined with doxorubicin at IC25, 48 h
[7] = 10 µM, 48 h, without doxorubicin

COc1cc(C2Oc3cc(-c4oc5cc(O)cc(O)c5c(=O)c4O)ccc3OC2CO)ccc1O (stereo not shown) [Dehydrosilybin AB, 2,3-dehydrosilybin]
IC50 (HepG2 cells; [1]): 9.2 ± 0.5 µM
IC50 (TNF-α; [2]): 26.7 ± 0.1 µM
TNF-α (pg/mL) (TNF-α; [3]): 2617 ± 118 ^b pg/mL
TNF-α (pg/mL) (TNF-α; [4]): 2364 ± 108 ^c pg/mL
TNF-α (pg/mL) (TNF-α; [5]): 0 ± 0 ^a pg/mL
TNF-α (pg/mL) (TNF-α; compound 50 µM, untreated LPS control 2954 ± 92, listed as dehydrosilybin AB): under the detection limit of the ELISA assay
IC50 (A2780/DOX): 33.6 ± 0.4 µM
ABCA1 Expression Difference (ABCA1; [6]): 3.122
ABCA1 Expression Difference (ABCA1; [7]): 1.803
ABCA3 Expression Difference (ABCA3; [6]): 0.943
ABCF1 Expression Difference (ABCF1; [6]): 0.923
ABCF1 Expression Difference (ABCF1; [7]): 0.322
ABCF1 Treated vs. Untreated (ABCF1; [7]): DOWN
ABCB2 Expression Difference (ABCB2): 2.341
ABCB9 Expression Difference (ABCB9): 1.669
ABCC5 Expression Difference (ABCC5): 1.519

COc1cc([C@@H]2Oc3cc([C@H]4Oc5cc(O)cc(O)c5C(=O)[C@@H]4O)ccc3O[C@H]2CO)ccc1O [Silybin B, silybin B]
IC50 (HepG2 cells; HepG2, DCFH-DA/AAPH, read-out: CAA, concentration necessary to halve the fluorescence response (IC50)): 8.9 ± 0.3 µM
IC50 (TNF-α; RAW264.7, RAW 264.7, 24 h pre-cultivation, then LPS 2 h, read-out: TNF-α, concentration necessary to halve the release (IC50)): 53.3 ± 0.7 µM
TNF-α (pg/mL) (TNF-α; [3]): 2441 ± 68 ^b pg/mL
TNF-α (pg/mL) (TNF-α; [4]): 2375 ± 64 ^c pg/mL
TNF-α (pg/mL) (TNF-α; [5]): 1792 ± 63 ^e pg/mL
IC50 (A2780/DOX): 194 ± 8.8 µM
ABCA1 Expression Difference (ABCA1; [6]): 2.415
ABCA3 Expression Difference (ABCA3; [6]): 0.794
ABCA3 Treated vs. Untreated (ABCA3; [6]): DOWN
ABCA3 Expression Difference (ABCA3; [7]): 0.228
ABCA3 Treated vs. Untreated (ABCA3; [7]): DOWN
ABCF1 Expression Difference (ABCF1; [7]): 0.260
ABCF1 Treated vs. Untreated (ABCF1; [7]): DOWN
ABCA2 Expression Difference (ABCA2): 0.520
ABCA2 Treated vs. Untreated (ABCA2): DOWN
ABCB9 Expression Difference (ABCB9): 0.392
ABCB9 Treated vs. Untreated (ABCB9): DOWN
ABCC5 Expression Difference (ABCC5): 0.365
ABCC5 Treated vs. Untreated (ABCC5): DOWN

COc1cc([C@H]2Oc3cc(-c4oc5cc(O)cc(O)c5c(=O)c4O)ccc3O[C@@H]2CO)ccc1O [Dehydrosilybin A, 2,3-dehydrosilybin A]
IC50 (HepG2 cells; [1]): 11.8 ± 0.7 µM
IC50 (TNF-α; [2]): 20.7 ± 0.4 µM
TNF-α (pg/mL) (TNF-α; [3]): 2338 ± 63 ^ab pg/mL
decrease of release of TNF-α (TNF-α; compound 25 µM, from 2954 pg/mL to 777 pg/mL): ~4 times
TNF-α (pg/mL) (TNF-α; [4]): 777 ± 28 ^a pg/mL
TNF-α (TNF-α; compound 25 µM, untreated LPS control 2954 ± 92, listed as dehydrosilybin A): 777 pg/mL
TNF-α (pg/mL) (TNF-α; [5]): 0 ± 0 ^a pg/mL
TNF-α (pg/mL) (TNF-α; compound 50 µM, untreated LPS control 2954 ± 92, listed as dehydrosilybin A): under the detection limit of the ELISA assay
IC50 (A2780/DOX): 74.4 ± 4.8 µM
ABCA1 Expression Difference (ABCA1; [6]): 4.172
ABCA3 Expression Difference (ABCA3; [6]): 1.042
ABCF1 Expression Difference (ABCF1; [6]): 0.920
downregulation of ABCA2 expression (ABCA2): 22%
ABCA2 Expression Difference (ABCA2): 0.778
ABCA2 Treated vs. Untreated (ABCA2): DOWN
ABCB2 Expression Difference (ABCB2): 1.905
ABCB9 Expression Difference (ABCB9): 1.317
